Test results: ChEMBL document CHEMBL4184139, “Adamantyl- and other polycyclic cage-based conjugates of desferrioxamine B (DFOB) for treating iron-mediated toxicity in cell models of Parkinson's disease” (Bioorg Med Chem Lett, 2017)
Active and inactive are the calls of the source. No cut-off for these calls is given here.

Tests used:
[1] = Octanol-water partition coefficient, log P of the compound at 1 mg by RP-HPLC analysis; format: physicochemical
[2] = Binding affinity to Fe3+ assessed as [M+2H]+ adduct formation by LC-MS/MS analysis
[3] = tested on: SK-N-BE(2)-M17; test: Cytoprotection against H2O2-induced cell death in human SK-N-BE(2)-M17 cells assessed as increase in cell viability at 100 uM pretreated for 2 hrs followed by 1 mM H2O2 addition measured after 24 hrs by MTT assay; format: functional, cell-based
[4] = tested on: SK-N-BE(2)-M17; test: Cytoprotection against PQ-induced cell death in human SK-N-BE(2)-M17 cells assessed as increase in cell viability at 100 uM pretreated for 2 hrs followed by 1 mM PQ addition measured after 24 hrs by MTT assay; format: functional, cell-based
[5] = tested on: SK-N-BE(2)-M17; test: Cytoprotection against H2O2-induced cell death in human SK-N-BE(2)-M17 cells assessed as increase in cell viability at 100 uM treated 2 hrs post 0.8 mM H2O2 treatment measured after 24 hrs by MTT assay; format: functional, cell-based
[6] = tested on: SK-N-BE(2)-M17; test: Cytoprotection against PQ-induced cell death in human SK-N-BE(2)-M17 cells assessed as increase in cell viability at 100 uM treated 2 hrs post 2 mM PQ treatment measured after 24 hrs by LDH assay; format: functional, cell-based
[7] = Binding affinity to Fe3+ assessed as [M+H]+ adduct formation by LC-MS/MS analysis
[8] = Binding affinity to Fe3+ assessed as change in retention time for compound-Fe3+ complex by RP-HPLC analysis relative to free ligand
[9] = tested on: SK-N-BE(2)-M17; test: Cytotoxicity against human SK-N-BE(2)-M17 cells at 100 uM 24 hrs by LDH release assay; format: cell-based; details: sk-n-be(2)-m17, 24 h
[10] = tested on: SK-N-BE(2)-M17; test: Cytoprotection against H2O2-induced cell death in human SK-N-BE(2)-M17 cells assessed as increase in cell viability at 100 uM treated 2 hrs post 0.8 mM H2O2 treatment measured after 24 hrs by LDH assay; format: functional, cell-based
[11] = tested on: SK-N-BE(2)-M17; test: Cytoprotection against PQ-induced cell death in human SK-N-BE(2)-M17 cells assessed as increase in cell viability at 100 uM treated 2 hrs post 2 mM PQ treatment measured after 24 hrs by MTT assay; format: functional, cell-based
[12] = tested on: SK-N-BE(2)-M17; test: Cytotoxicity against human SK-N-BE(2)-M17 cells at 100 uM 24 hrs by MTT assay; format: cell-based; details: sk-n-be(2)-m17, 24 h
[13] = tested on: Astrocyte; test: Cytoprotection against H2O2-induced cell death in BSO pretreated C57BL6/J mouse brain primary astrocytes assessed as increase in cell viability at 10 uM pretreated for 2 hrs followed by H2O2 addition measured after 24 hrs by MTT assay; format: functional, cell-based
[14] = tested on: SK-N-BE(2)-M17; test: Cytoprotection against PQ-induced cell death in human SK-N-BE(2)-M17 cells assessed as increase in cell viability at 100 uM pretreated for 2 hrs followed by 1 mM PQ addition measured after 24 hrs by LDH assay; format: functional, cell-based
[15] = tested on: SK-N-BE(2)-M17; test: Cytoprotection against H2O2-induced cell death in human SK-N-BE(2)-M17 cells assessed as increase in cell viability at 100 uM pretreated for 2 hrs followed by 1 mM H2O2 addition measured after 24 hrs by LDH assay; format: functional, cell-based
[16] = tested on: SK-N-BE(2)-M17; test: Cytoprotection against PQ-induced cell death in human SK-N-BE(2)-M17 cells assessed as increase in cell viability at 100 uM treated post 200 uM Fecl3 and 1 mM PQ treatment measured after 24 hrs by MTT assay; format: functional, cell-based
[17] = tested on: Astrocyte; test: Cytoprotection against H2O2-induced cell death in BSO pretreated C57BL6/J mouse brain primary astrocytes assessed as increase in cell viability at 10 uM pretreated for 2 hrs followed by H2O2 addition measured after 24 hrs by LDH release assay; format: functional, cell-based
[18] = tested on: SK-N-BE(2)-M17; test: Cytoprotection against PQ-induced cell death in human SK-N-BE(2)-M17 cells assessed as increase in cell viability at 100 uM treated post 200 uM Fecl3 and 1 mM PQ treatment measured after 24 hrs by LDH assay; format: functional, cell-based

SMILES	logP [1]	Activity [2]	Activity [3]	Activity [4]	Activity [5]	Activity [6]	Activity [7]	Retention time [8]	Activity [9]	Activity [10]	Activity [11]	Activity [12]	Activity [13]	Activity [14]	Activity [15]	Activity [16]	Activity [17]	Activity [18]
c1ccc2ccccc2c1	3.27																	
CC(=O)N(O)CCCCCNC(=O)CCC(=O)N(O)CCCCCNC(=O)CCC(=O)N(O)CCCCCNC(=O)C12CC3CC(CC(Br)(C3)C1)C2	1.9	Active	inactive	inactive	inactive	inactive	Active	0.91 min	Non-Toxic	inactive	inactive	Non-Toxic	Active	inactive	inactive			
CC(=O)N(O)CCCCCNC(=O)CCC(=O)N(O)CCCCCNC(=O)CCC(=O)N(O)CCCCCNC(=O)CC12CC3CC(CC(O)(C3)C1)C2	0.15	Active	Active	Active			Active	-0.52 min	Non-Toxic			Non-Toxic		Active	Active			
CC(=O)N(O)CCCCCNC(=O)CCC(=O)N(O)CCCCCNC(=O)CCC(=O)N(O)CCCCCNC(=O)CC12CC3CC(CC(Br)(C3)C1)C2	1.84	Active	inactive	inactive	inactive	inactive	Active	1.09 min	Non-Toxic	inactive	inactive	Non-Toxic		inactive	inactive			
CC(=O)N(O)CCCCCNC(=O)CCC(=O)N(O)CCCCCNC(=O)CCC(=O)N(O)CCCCCNC(=O)C12CC3CC(CC(Cl)(C3)C1)C2	1.84	Active	inactive	inactive	inactive	inactive	Active	0.83 min	Non-Toxic	inactive	inactive	Non-Toxic	Active	inactive	inactive	Active	Active	
CC(=O)N(O)CCCCCNC(=O)CCC(=O)N(O)CCCCCNC(=O)CCC(=O)N(O)CCCCCNC(=O)[C@H]1C[C@H]2C=C[C@H]1C2	0.5 to 1.4	Active	Active	Active	Active	Active	Active	-0.52 to 0 min	Non-Toxic	Active	Active	Non-Toxic		Active	Active	Active		Active
CC(=O)N(O)CCCCCNC(=O)CCC(=O)N(O)CCCCCNC(=O)CCC(=O)N(O)CCCCCNC(=O)C12CC3CC(C1)CC(c1ccc([N+](=O)[O-])cc1)(C3)C2	2.09	Active	Active	Active	Active	Active	Active	1.71 min	Non-Toxic	Active	Active	Non-Toxic	Active	Active	Active		Active	Active
CC(=O)N(O)CCCCCNC(=O)CCC(=O)N(O)CCCCCNC(=O)CCC(=O)N(O)CCCCCNC(=O)C[C@H]1C[C@H]2CC[C@H]1C2 (relative stereo)	1.16	Active	Active	Active	Active	Active	Active	0.27 min	Non-Toxic	Active	Active	Non-Toxic		Active	Active			
c1ccc2c(c1)oc1ccccc12 [DIBENZOFURAN]	3.76																	
CC(=O)N(O)CCCCCNC(=O)CCC(=O)N(O)CCCCCNC(=O)CCC(=O)N(O)CCCCCNC(=O)[C@H]1C[C@H]2CC[C@H]1C2 (relative stereo)	0.55	Active	Active	Active	Active	Active	Active	0.08 min	Non-Toxic	Active	Active	Non-Toxic		Active	Active	Active		Active
COC(=O)c1ccccc1C(=O)OC [DIMETHYL PHTHALATE]	1.59																	
CC(=O)N(O)CCCCCNC(=O)CCC(=O)N(O)CCCCCNC(=O)CCC(=O)N(O)CCCCCNC(=O)C1CC2CCCC(C2)C1 (stereo not given)	1.87	Active	inactive	inactive	inactive	inactive	Active	0.65 min	Non-Toxic	inactive	inactive	Non-Toxic	Active	inactive	inactive	Active	Active	Active
